This is an account of results in ChEMBL document CHEMBL3988442, “University of Dundee, Small-Polar-MMV Screening Library” (2021).

This experiment addresses Polyketide synthase Pks13 (Mycobacterium tuberculosis (strain ATCC 25618 / H37Rv), UniProt I6X8D2). Kind of experiment: Mycobacterium tuberculosis Polyketide synthase 13 Thioesterase (PKS13). It is filed as functional.

Structures are written as SMILES. Several values for one entry are separate records, joined by “and”; a condition that tells them apart may be missing. Equal values may be shown once. A value given as a limit tells only on which side of the number the result lay.

Sequence of Polyketide synthase Pks13 (I6X8D2 whole entry): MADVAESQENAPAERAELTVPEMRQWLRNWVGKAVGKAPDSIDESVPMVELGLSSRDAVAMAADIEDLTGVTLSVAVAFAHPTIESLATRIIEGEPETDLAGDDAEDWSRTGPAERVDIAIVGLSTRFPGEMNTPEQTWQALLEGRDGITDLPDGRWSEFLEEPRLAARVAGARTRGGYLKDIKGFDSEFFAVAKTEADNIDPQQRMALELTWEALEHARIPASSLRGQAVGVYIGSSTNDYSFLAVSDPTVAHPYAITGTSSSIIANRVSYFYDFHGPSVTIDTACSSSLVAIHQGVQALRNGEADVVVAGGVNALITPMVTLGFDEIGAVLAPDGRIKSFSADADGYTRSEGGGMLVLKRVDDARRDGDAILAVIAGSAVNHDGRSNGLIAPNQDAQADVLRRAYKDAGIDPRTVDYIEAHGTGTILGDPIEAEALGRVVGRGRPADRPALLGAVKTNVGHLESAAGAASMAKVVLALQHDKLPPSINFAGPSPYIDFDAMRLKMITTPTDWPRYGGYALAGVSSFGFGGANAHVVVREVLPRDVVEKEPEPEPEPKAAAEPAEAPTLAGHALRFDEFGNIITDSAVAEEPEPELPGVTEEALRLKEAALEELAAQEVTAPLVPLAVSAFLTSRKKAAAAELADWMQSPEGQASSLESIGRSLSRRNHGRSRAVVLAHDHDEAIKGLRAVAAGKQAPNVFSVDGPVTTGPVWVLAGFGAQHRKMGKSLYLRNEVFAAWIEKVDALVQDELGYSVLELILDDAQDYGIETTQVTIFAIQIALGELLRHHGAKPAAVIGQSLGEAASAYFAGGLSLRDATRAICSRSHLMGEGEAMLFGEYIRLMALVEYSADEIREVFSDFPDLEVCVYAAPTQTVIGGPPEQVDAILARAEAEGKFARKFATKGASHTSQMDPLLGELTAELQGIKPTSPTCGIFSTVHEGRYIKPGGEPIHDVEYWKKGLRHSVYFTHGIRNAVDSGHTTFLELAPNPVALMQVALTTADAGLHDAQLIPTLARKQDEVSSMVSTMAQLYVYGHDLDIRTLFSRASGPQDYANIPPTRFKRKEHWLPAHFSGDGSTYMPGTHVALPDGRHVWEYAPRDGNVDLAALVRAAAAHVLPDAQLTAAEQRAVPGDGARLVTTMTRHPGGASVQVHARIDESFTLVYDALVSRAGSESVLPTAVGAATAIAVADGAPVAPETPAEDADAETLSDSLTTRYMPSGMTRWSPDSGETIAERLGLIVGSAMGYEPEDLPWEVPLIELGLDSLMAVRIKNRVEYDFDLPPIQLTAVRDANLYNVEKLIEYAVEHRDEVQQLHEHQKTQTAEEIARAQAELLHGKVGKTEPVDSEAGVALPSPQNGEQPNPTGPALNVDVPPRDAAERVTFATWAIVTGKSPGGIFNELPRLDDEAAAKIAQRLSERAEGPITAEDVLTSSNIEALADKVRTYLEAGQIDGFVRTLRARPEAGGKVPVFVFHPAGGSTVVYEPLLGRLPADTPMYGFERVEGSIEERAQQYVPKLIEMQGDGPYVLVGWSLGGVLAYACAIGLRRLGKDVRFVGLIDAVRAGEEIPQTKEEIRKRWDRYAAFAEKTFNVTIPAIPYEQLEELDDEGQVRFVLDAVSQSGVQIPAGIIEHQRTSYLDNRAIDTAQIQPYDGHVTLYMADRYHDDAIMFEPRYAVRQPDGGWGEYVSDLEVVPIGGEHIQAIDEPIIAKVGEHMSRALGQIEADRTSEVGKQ

As a reminder, the IC50 is the midpoint of a concentration-inhibition curve. The low end stands for greater potency, the high end for weaker potency. With `CC1(C)Cc2ccccc2-c2nc(NCCCO)[nH]c(=O)c21`, the IC50 is 28.6 µM and 27.1 µM.

On to `CCC1(C)Cc2ccccc2-c2nc(NCCO)nc(O)c21` (centres undefined), for which the IC50 was 31.8 µM and 28.8 µM.

`c1ccc(CCCN2CC[C@H](c3nnc(-c4ccccc4)o3)C2)cc1` had an IC50 above 100 µM.

`Cn1cncc1-c1nnc([C@H]2CCN(Cc3ncc[nH]3)C2)o1` had an IC50 above 100 µM.

Consider `COc1ccc2nc(C[C@@H]3C[C@@H](C(C)C)[C@H](CN)C=C3C)[nH]c2n1`, for which the IC50 was above 100 µM.

On to `CN(C)c1ccc(-c2nnc([C@H]3CCN(C4CCCCC4)C3)o2)cc1`, for which the IC50 was above 100 µM.

Turning to `Cc1cccn2c(=O)cc(CSCC(=O)Nc3nnc(C(C)C)s3)nc12`, the IC50 was above 100 µM.

`CCOC(=O)CNC(=O)NCc1cc(C)n(-c2ccccc2OC)c1C`: the IC50 was above 100 µM.

In the case of `CCC(CC)C(=O)n1ccn(S(=O)(=O)c2ccc(C)cc2)c1=O`, the IC50 is 20 µM and 19.7 µM.

For the compound `CC(=O)N1N=C(c2ccco2)OC1C(=O)NCC(C)C` (centres undefined), the concentration for half-maximal inhibition (IC50) was above 100 µM.

In the case of `Cc1ccc(C)c(-n2ncc(C(=O)NCC3COC(C)(C)O3)c2N)c1` (centres undefined), the 50% inhibitory concentration (IC50) was above 100 µM.

In turn, `CCOCCCNC(=O)c1cn(C(C)(C)C)c2ncccc12` gave an IC50 above 100 µM.

Consider `Cc1cc2c(N)nc(=O)n(CC(=O)Nc3ccccc3)c2s1`, for which the IC50 was above 100 µM.

As to `O=C(Nc1nc2c(s1)CN(S(=O)(=O)C1CC1)CC2)c1cccc(Cl)c1`, the IC50 is 12.2 µM and 20.2 µM.

For the compound `O=C(Nc1cnc(N2CCOCC2)nc1)c1ccc(C(F)(F)F)cc1`, the IC50 was 22.3 µM and 20.4 µM.

As to `Cc1ccnc(OC[C@]23COC[C@H]2CN(C(=O)c2ncccn2)C3)n1`, the IC50 is above 100 µM.

On to `O=C1CCCN1Cc1ncn2c1CN(C(=O)NC1CCCC1)CCC2`, for which the IC50 was above 100 µM.

Take `CCn1c(SCC(=O)N2CCCC2)nc2cc(C)[nH]c2c1=O`: the IC50 is above 100 µM.

As for `CCc1ccc(C(O)CN2CCN(c3cccc(OC)c3)CC2)cc1` (centres undefined), the IC50 is 23.2 µM and 27.3 µM.

As to `CC1CCc2nc(O)c(C(=O)NCCCN3CCN(C)CC3)cc2C1` (centres undefined), the IC50 is 31.6 µM and 37.1 µM.

Consider `COc1ccc(-c2ccnc3nc(N4CCCCC4)[nH]c(=O)c23)cc1`, for which the IC50 was 19.6 µM and 3.94 µM.

Consider `N#Cc1cc(C#N)c(SCC(=O)Nc2ccc(F)cc2)nc1N`, for which the IC50 was 19.3 µM and 21.8 µM.

As for `Cn1cc(I)c(C(=O)NCCCn2cc(Br)cn2)n1`, the IC50 is 9.34 µM and 48.9 µM.

Turning to `CCCn1nnc(NCc2ccc(-c3ccc(Br)cc3)o2)n1`, the IC50 was 29.6 µM and > 100 µM.

Regarding `Cc1cccc(-n2nnnc2C(C)(C)Nc2ccccc2C)c1`, the IC50 is 13.8 µM and 11.7 µM.

For `O=C1CNc2ncnc(N3CCN(Cc4ccccc4F)CC3)c2N1`, the IC50 was above 100 µM.

Take `O=C(O)CSc1nccc(-c2ccc3c(c2)OCO3)n1`: the IC50 was 16.4 µM and 18.6 µM.

With `CCN(CC)C(=O)c1nnc2ccc(N3CCOCC3)cc2n1`, the 50% inhibitory concentration (IC50) is 6.1 µM and 15.9 µM.

Regarding `O=C1CC(c2ccc(F)c(F)c2)c2snc(C(=O)O)c2N1` (centres undefined), the IC50 was above 100 µM.

For `CN(C)C(=O)c1cn[nH]c1C1(C)CCN(c2ncccn2)CC1`, the IC50 is above 100 µM.

Compound `CC(C)NC(=O)[C@@H]1CN(C(=O)C2CC2)C[C@]12Cc1ccccc1C(=O)N2` showed an IC50 above 100 µM.

On to `CC(=O)N1CCCC1c1ccc(Br)cn1` (centres undefined), for which the IC50 was above 100 µM.

For the compound `Cc1ccc2nc(C(=O)N(C)[C@@H]3CC[C@@H](N4CCCC4)[C@@H]3O)cn2c1`, the IC50 is above 100 µM.

In turn, `Cc1cc(C)n(-c2nc(C(=O)NCCN3CCC(C)CC3)cs2)n1` showed an IC50 above 100 µM.

As to `Cc1n[nH]c(C)c1CCC(=O)NCC1(O)CCN(c2ccccn2)C1` (centres undefined), the IC50 was above 100 µM.

Compound `Nc1nccnc1CC1CCCN(Cc2ccnc3ccccc23)C1` (centres undefined) gave an IC50 above 100 µM.

On to `Cc1cc(C2CCCCN2C(=O)c2ccsc2)nc2nccn12` (centres undefined), for which the half-inhibitory concentration (IC50) was above 100 µM.

For `O=C(CCc1cc(Cl)no1)N1CCC(c2cc3ncccc3cn2)CC1`, the IC50 is above 100 µM.

Turning to `CCc1nnc(Nc2cccc(C3CCN(C(C)=O)CC3)n2)s1`, the IC50 was above 100 µM.

On to `CNc1cncc(C2CCCN2c2cc(C)ncn2)n1` (centres undefined), for which the IC50 is 20.5 µM and 30.5 µM.

`Cc1nnsc1C(=O)N1CC[C@H](c2ccccc2)[C@@H]2[C@H]1CCCCN2C`: the concentration for half-maximal inhibition (IC50) was above 100 µM.

Take `Cc1ccc2cc(CNCCCN3CCOCC3)c(=O)[nH]c2c1C`: the IC50 is above 100 µM.

As to `CC(C)(C)C(=O)N1CCC(n2nc(-c3ccco3)ccc2=O)CC1`, the IC50 was above 100 µM.

`Cc1ccc(CN2CCCC(c3nn(C)c4nccnc34)C2)s1` (centres undefined): the IC50 was above 100 µM.

In the case of `Cc1cc(-c2cnn(CCNC(=O)c3snnc3C)c2C2CC2)on1`, the IC50 is above 100 µM.

For the compound `Cc1cc(C)c2cc(CNCc3cccnc3)c3nn(C)c(=O)n3c2c1`, the IC50 was 59.1 µM.

`Cn1nc(C2CCCN2)c2c(C(=O)NCC(F)(F)F)cc(C3CC3)nc21` (centres undefined) had an IC50 above 100 µM.

`Cc1c(C(=O)N2CCOCC2)nnn1-c1ccc2ncccc2c1` had an IC50 above 100 µM.

As to `COc1ccc2nc(C3CC3)cc(C(=O)NCc3noc(C)n3)c2c1`, the half-maximal inhibitory concentration (IC50) is 21.6 µM and 21.4 µM.

`Cc1noc(CNc2ccc(CC(=O)N3CCSCC3)cc2)n1`: the IC50 is above 100 µM.

In turn, `Cc1ccc(C(=O)N2CCN(c3ncnc4nc(N)ccc34)CC2)o1` had an IC50 above 100 µM.

On to `CN1CCc2ccc(NCc3cccs3)cc2C1=O`, for which the IC50 is above 100 µM.

Take `COC(=O)c1ccc(NC2CCN(CC(F)(F)F)C2=O)cc1C` (centres undefined): the IC50 was above 100 µM.

For `CCC(CNC(=O)COC)Oc1cccc(F)c1` (centres undefined), the IC50 was above 100 µM.

Consider `NC(=O)c1cc(C2CC2)nc2ccc(F)cc12`, for which the IC50 is above 100 µM.

Take `CCc1noc(Cn2c(=O)c3c(C(F)(F)F)cc(C)nc3n2C)n1`: the IC50 is 36 µM and 34.8 µM.

Regarding `CC(=O)N1CCC(NC(=O)c2cc(Cl)ccc2O)CC1`, the IC50 is > 100 µM and 80.2 µM.

Take `CC(NC(=O)NCC(C)(C)C(N)=O)c1nc(-c2ccccc2)cs1` (centres undefined): the IC50 was above 100 µM.

With `Cc1nc(CNC(=O)N2CCN(c3ccc(Cl)cn3)CC2)sc1C`, the IC50 is 42.5 µM and 31.5 µM.

`CC(C)(C)OCCN1CCCC1c1nc(Cc2ccc(F)cc2)no1` (centres undefined): the IC50 was above 100 µM.

In the case of `COC(=O)C(C)(C)NC(=O)c1cc2sc(N(C)C)nc2s1`, the IC50 is 21.9 µM and 10.8 µM.

For `O=C(OCC1CCN(c2ccccc2)C1)c1cscn1` (centres undefined), the IC50 is 29.9 µM and 4.14 µM.

Regarding `COCc1nc(C(=O)OCC2CCN(c3ccccc3)C2)cs1` (centres undefined), the IC50 is > 100 µM and 16 µM.

With `Cn1c(NCC(=O)N2CCCC2)c(C#N)c(=O)n(C)c1=O`, the half-maximal inhibitory concentration (IC50) was above 100 µM.

On to `O=C(c1ccc(-n2cc(Br)cn2)cc1)N1CCN(c2cnccn2)CC1`, for which the IC50 was 2.63 µM and 3.37 µM.

Compound `O=C(c1ccc(-n2ccnc2)cc1)N1CCN(c2cnccn2)CC1` showed an IC50 above 100 µM.

`O=C(NCc1ccc2c(c1)OCCO2)N1CCC(CO)CC1` had an IC50 above 100 µM.

With `COC(=O)c1sc2cccc(F)c2c1CNC(=O)C1CCOC1` (centres undefined), the IC50 was above 100 µM.

As to `COc1cc2nc(NCc3cc(C)on3)nc(N)c2cc1OC`, the IC50 was > 100 µM and 89.5 µM.

For the compound `CCCNC(=O)CCNc1cncc(-n2nc(C)cc2C)n1`, the half-inhibitory concentration (IC50) is 28 µM and 22 µM.

As for `Cc1cc(C)n(-c2cncc(NCCNS(C)(=O)=O)n2)n1`, the IC50 was 20.9 µM and 8.18 µM.

Consider `Cc1cc(C)n(-c2cncc(NCCC(=O)NC(C)C)n2)n1`, for which the IC50 is 24.1 µM and 15.2 µM.

In the case of `Cc1cnn(CC2CCCN2Cc2cc(=O)n3cc(C)ccc3n2)c1` (centres undefined), the IC50 is > 100 µM and 95.9 µM.

Regarding `CCC(=O)NCC(=O)NCC(C)(C)c1cccc(Br)c1`, the IC50 was above 100 µM.

`Cc1cc(S(=O)(=O)Nc2cccc(I)c2)sc1C(=O)O`: the IC50 is 6.1 µM and 15.1 µM.

On to `CCc1cccc(NS(=O)(=O)c2cc(C)c(C(=O)O)s2)c1`, for which the IC50 is 16.6 µM and 11.6 µM.

Turning to `Cc1cc(S(=O)(=O)Nc2cccc(OC(F)F)c2)sc1C(=O)O`, the IC50 was 16.4 µM and 3.37 µM.

In turn, `Cc1ccc(CNC(=O)C2CCCCN2C(=O)OC(C)(C)C)cn1` (centres undefined) showed an IC50 above 100 µM.

As to `COc1ccc(NC(C)C(=O)N2CCCC2)cn1` (centres undefined), the IC50 is above 100 µM.

`CC1(NC(=O)Cc2csc(NC(=O)c3ccccc3)n2)CCS(=O)(=O)C1` (centres undefined): the IC50 was above 100 µM.

`N#Cc1ccc(C(=O)O)nc1/C=C/c1cccc(Cl)c1`: the IC50 was above 100 µM.

`CN(Cc1ccc(N2CCCCC2)cc1)Cc1noc(C(C)(C)C)n1`: the IC50 is above 100 µM.

Turning to `CCOCC1CN(C(=O)c2cccs2)Cc2cnn(CC3CC3)c21` (centres undefined), the IC50 was above 100 µM.

In the case of `Cn1cc(-c2ncc3c(c2C(=O)O)CCN(CC2CCOC2)C3)cn1` (centres undefined), the 50% inhibitory concentration (IC50) was above 100 µM.

Turning to `CC1=N[C@@]2(CC[C@@H]3CN(S(C)(=O)=O)C[C@@H]32)C(=O)N1CC(C)C`, the IC50 is above 100 µM.

Consider `CN(C)CC(=O)N1Cc2nc(C(=O)NCc3ccccc3)oc2C1`, for which the IC50 is above 100 µM.

Take `Cc1ncc(CNCC(C)O)c2cc(C(=O)c3ccc(Br)cc3)oc12` (centres undefined): the IC50 was above 100 µM.

The compound `O=C1CC(NCc2cnc(N3CCCC3)nc2)CN1c1ccccc1` (centres undefined) showed an IC50 above 100 µM.

For the compound `CN(C[C@@H]1CCC[C@@H]2CN(c3ncccn3)C[C@@H]21)C1CC1`, the IC50 was above 100 µM.

`CCc1cnc(N2CC[C@H]3[C@@H]2CCC(=O)N3CC2CCOCC2)nc1` had an IC50 above 100 µM.

The compound `Cn1cc(C[C@H]2[C@H](N3CCOCC3)CCN2c2ncc(F)cn2)cn1` had an IC50 above 100 µM.

`COc1cccc(CN2CCC3(CCN(c4ncc(C)cn4)CC3)C2)c1` gave an IC50 above 100 µM.

Consider `O=C(c1ccco1)N1CCO[C@@H]2CN(c3ccccn3)CC[C@@H]2C1`, for which the IC50 is above 100 µM.

Consider `Cc1ccc(NC(=O)c2nc3c(s2)CCCN3C(=O)C2CC2)cn1`, for which the IC50 was above 100 µM.

The compound `Cc1noc([C@@H]2C[C@H]3OCC[C@H]3N(S(=O)(=O)c3cccnc3)C2)n1` had an IC50 above 100 µM.

`O=C(Cc1cccc(F)c1)N1CCc2ncnc(NC3CC3)c2CC1`: the IC50 is above 100 µM.

Compound `CCOC1CC2(CCN(C(=O)Cc3ccccn3)CC2)C1` gave an IC50 above 100 µM.

Regarding `Cn1ccnc1C(=O)N1C[C@@H]2CCN(c3cnccn3)C[C@@H]2C1`, the IC50 is above 100 µM.

The compound `CC(C)OCc1ncn2c1CN(Cc1nccs1)CCC2` had an IC50 above 100 µM.

In turn, `CN(C)c1ncnc2c1CCN(C(=O)c1cccnc1)CC2` gave an IC50 above 100 µM.

In the case of `CNC(=O)CNC1CC2(CCN(c3ncccn3)CC2)c2ccccc21` (centres undefined), the IC50 is above 100 µM.

The compound `CCOCCN1Cc2ncn(C)c2C(COCC2CCOCC2)C1` (centres undefined) showed an IC50 above 100 µM.

For `Cn1ncc2c1CN(Cc1cccnc1)CC2COCC1CC1` (centres undefined), the IC50 was above 100 µM.

Take `CCN(CC)C(=O)c1cc(C2CCCN2C)ccn1` (centres undefined): the IC50 is above 100 µM.
